EP4711367A1, “PYRAZOLOPYRAZINE COMPOUND AND METHOD FOR PREPARING CRYSTAL FORM THEREOF” (CMS Research & Development Pte. Ltd., priority 2023, dated 2024)

Experiment: Pharmacokinetic (PK) test in mice
Type: in vivo, male mice (balb/c)
Experimental: The clarified solutions obtained by dissolving the test compound were administered to male mice (balb/c) via tail vein injection and oral gavage, respectively. After administration of the test compound, blood was collected from the mandibular vein at 0.083, 0.25, 0.5, 1, 2, 4, 8, and 24 hours for the intravenous injection group (1 mg/kg) and at 0.25, 0.5, 1, 2, 4, 6, 8, and 24 hours for the oral gavage group (3 mg/kg), followed by centrifugation to obtain plasma. Plasma concentrations were determined by the LC-MS/MS method, and relevant pharmacokinetic parameters were calculated using WinNonlin™ Version 6.3 pharmacokinetic software with non-compartmental model linear-log trapezoidal method. PK test results of the compound of formula (I) in mice

Question: What does the source list for `Cn1cc(-c2cn3nccc3c(-c3cnn([C@]4(CC#N)CC5(C[C@H](C#N)C5)C4)c3)n2)cn1` (some centres unmarked) [Compound of formula (I)]?
Answer: exposure (in words): high exposure; oral bioavailability (in words): good oral bioavailability
